Earlier results as cited in US8759032B2, “Genetically engineered strain WSJ-IA for producing isovaleryl spiramycin I” (Shen Yang Tonglian Group Co., Ltd., priority 2010, dated 2014).

conditions: single components; no significant differences in their activities; patent application 201010119745.1

| Compound | antibiotic activities |
| --- | --- |
| CCC(=O)O[C@@H]1CC(=O)O[C@H](C)C/C=C/C=C/[C@H](O[C@H]2CC[C@H](N(C)C)[C@@H](C)O2)[C@H](C)C[C@H](CC=O)[C@H](O[C@@H]2O[C@H](C)[C@@H](O[C@H]3C[C@@](C)(O)[C@@H](OC(=O)CC(C)C)[C@H](C)O3)[C@H](N(C)C)[C@H]2O)[C@H]1OC [Isovaleryl spiramycin III] | all have antibiotic activities |
| CO[C@@H]1[C@@H](O[C@@H]2O[C@H](C)[C@@H](O[C@H]3C[C@@](C)(O)[C@@H](OC(=O)CC(C)C)[C@H](C)O3)[C@H](N(C)C)[C@H]2O)[C@@H](CC=O)C[C@@H](C)[C@@H](O[C@H]2CC[C@H](N(C)C)[C@@H](C)O2)/C=C/C=C/C[C@@H](C)OC(=O)C[C@H]1O [Isovaleryl spiramycin I] | all have antibiotic activities |
| Isovaleryl spiramycin II | all have antibiotic activities |
